Assay results: PubChem BioAssay (NCI)
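Compound exposure: 48 hours, 5 concentrations, 96-well plates. At the GI50, growth is halved. The concentration for full growth arrest is given as TGI.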

System: MDA-MB-468 breast
Assay: growth of human tumour cells (NCI), 48 h

Row | Compound | GI50 | TGI
1 | CN(C)c1cc2c(Nc3ccc4c(cnn4Cc4ccccc4)c3)ncnc2cn1 | 136 nM | 1160 nM
2 | O=C(N=Nc1c(Cl)c(O)c2ccccc2c1O)C(=O)Nc1cccc(C(F)(F)F)c1 | 4160 nM | 15300 nM
3 | Cc1c(Cl)cccc1NC(=O)c1sc2nc3c(cc2c1N)C(=O)CCC3 | 45.3 nM | 71700 nM
4 | CC(C)(O)CCc1cccc(C(=O)c2cnn(-c3ccc(F)cc3)c2N)c1 | 13200 nM | > 25000 nM
5 | Cc1ccc(N=Nc2c(O)ccc3n[nH]nc23)cc1 | 4140 nM | 49000 nM
6 | [Cl][Hg][c]1ccc2ccccc2c1 | 1460 nM | 2840 nM
7 | COc1cc2c3c(n([C@@H]4CCOC4)c(=O)c2cc1OC)-c1cc2c(cc1C3=O)OCO2 | < 10 nM | 94.9 nM
8 | O=C(N/N=C/c1cc(Cl)ccc1O)c1ccccc1Nc1ccnc(C(F)(F)F)c1 | 265 nM | 2050 nM
